According to patent publication US20240148821A1, “PHARMACEUTICAL USE OF CYCLIC PEPTIDE COMPOUND” (CHUGAI SEIYAKU KABUSHIKI KAISHA, priority 2021, published 2024):
Bridge positions count the residues as written; N and C are the ends. Square brackets hold non-standard residues; d marks the D form. Peptide text beside a SMILES is read from it. * marks the point of attachment. hPhe(3-Cl-4-CF3) = N[C@@H](CCc1ccc(C(F)(F)F)c(Cl)c1)C(=O)O; NMePhe(4-CF3) = CN[C@@H](Cc1ccc(C(F)(F)F)cc1)C(=O)O; NEtPhe(4-Me) = CCN[C@@H](Cc1ccc(C)cc1)C(=O)O; NMePhe(2-F) = CN[C@@H](Cc1ccccc1F)C(=O)O; NMeGly(cPent) = CN[C@H](C(=O)O)C1CCCC1; NMe3Pal = CN[C@@H](Cc1cccnc1)C(=O)O; NMeCha = CN[C@@H](CC1CCCCC1)C(=O)O; NMeAhp(2) = CCCCC[C@H](NC)C(=O)O; NMeI = CC[C@H](C)[C@H](NC)C(=O)O; NMeD = CN[C@@H](CC(=O)O)C(=O)O; NMeL = CN[C@@H](CC(C)C)C(=O)O; NMeV = CN[C@H](C(=O)O)C(C)C; d(β3hA) = C[C@@H](N)CC(=O)O; Azetidin(1-yl) = C1CN(*)C1; NMeS = CN[C@@H](CO)C(=O)O; NMeA = CN[C@@H](C)C(=O)O; Piperidide = C1CCN(*)CC1; Pyrrolidide = C1CCN(*)C1; Ac5c = NC1(C(=O)O)CCCC1; Aze = O=C(O)[C@@H]1CCN1; Isopentyl = CC(C)CC*; Sar = CNCC(=O)O

What was measured:
[1] = target: protein-protein interaction between Kras and SOS1 (biotin-tagged human Kras loaded with GDP, His-tagged human SOS1) (Homo sapiens (Human), UniProt P01116, G12D); experiment: Protein-protein interaction inhibition between Kras and SOS1 (KrasG12D-SOS PPI) using AlphaScreen; format: biochemical; conditions: AlphaScreen; biotin-tagged human Kras loaded with GDP, His-tagged human SOS1; read-out: KRAS G12D-SOS PPI IC50;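 further: kras produced in E. coli, Ni-coupled donor beads and streptavidin acceptor beads, excitation 680 nm with emission detected at 520–620 nm via singlet oxygen transfer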
[2] = test system: Human pancreatic cancer cell line AsPC-1 (G12D mutation Kras); experiment: AsPC-1 cell growth inhibition (AsPC-1 CGI); format: cell-based; conditions: read-out: AsPC-1 cell growth inhibition, 50% growth inhibitory concentration (IC50 value); 96 hours, CellTiter-Glo, values classified in ranges
Experimental: Test compounds were serially dilated with dimethyl sulfoxide, and 200 nL was then dispensed to a U-bottom 96-well plate using Labcyte Echo. […] The cell suspension was dispensed to a. plate containing a test compound at 100 μL per well and incubated at 37° C. in a 5% carbon dioxide gas incubator. 96 hours later, 80 μL of CellTiter-Glo (Promega) was added to each well and fluorescence was measured.

`CC[C@H](C)[C@@H]1NC(=O)[C@H](CC(C)C)N(C)C(=O)C[C@@H](C(=O)N2CCCCC2)N(C)C(=O)[C@H](COC)N(C)C(=O)C2(CCCC2)NC(=O)[C@@H]2CCCN2C(=O)[C@H](CCc2ccc(C(F)(F)F)c(Cl)c2)NC(=O)CN(C)C(=O)[C@H](CC2CCCCC2)N(C)C(=O)[C@@H]2CCN2C(=O)[C@H](C)N(C)C1=O` [Compound 484] ([NMeL]I[NMeA][Aze][NMeCha][Sar][hPhe(3-Cl-4-CF3)]P[Ac5c][NMeS](Me)[NMeD]-Piperidide; lactam N-11) was tested, and the IC50 [1] was 110 nM and the IC50 [2] was > 500 nM.
With `CC(C)CCOC[C@@H]1NC(=O)[C@H](CC(C)C)N(C)C(=O)C[C@@H](C(=O)N2CCCCC2)N(C)C(=O)[C@H](C(C)C)N(C)C(=O)C2(CCCC2)NC(=O)[C@@H]2CCCN2C(=O)[C@H](CCc2ccc(C(F)(F)F)c(Cl)c2)NC(=O)CN(C)C(=O)[C@H](CC2CCCCC2)N(C)C(=O)[C@@H]2CCN2C(=O)[C@H](C)N(C)C1=O` [Compound 485] ([NMeL]S(Isopentyl)[NMeA][Aze][NMeCha][Sar][hPhe(3-Cl-4-CF3)]P[Ac5c][NMeV][NMeD]-Piperidide; lactam N-11) the IC50 [1] was 160 nM and the IC50 [2] was > 500 nM.
For `CC[C@H](C)[C@@H]1NC(=O)[C@H](CC(C)C)N(C)C(=O)C[C@@H](C(=O)N2CCCCC2)N(C)C(=O)[C@H](C(C)C)N(C)C(=O)C2(CCCC2)NC(=O)[C@@H]2CCCN2C(=O)[C@H](CCc2ccc(C(F)(F)F)c(Cl)c2)NC(=O)CN(C)C(=O)[C@H](COC)N(C)C(=O)[C@@H]2CCN2C(=O)[C@H](C)N(C)C1=O` [Compound 487] ([NMeL]I[NMeA][Aze][NMeS](Me)[Sar][hPhe(3-Cl-4-CF3)]P[Ac5c][NMeV][NMeD]-Piperidide; lactam N-11), the IC50 [1] was 5.9 nM and the IC50 [2] was > 500 nM.
`CC[C@H](C)[C@@H]1NC(=O)[C@H](C)N(C)C(=O)C[C@@H](C)NC(=O)[C@H](C2CCCC2)N(C)C(=O)C2(CCCC2)NC(=O)[C@@H]2CCCN2C(=O)[C@H](CCc2ccc(C(F)(F)F)c(Cl)c2)NC(=O)CN(C)C(=O)[C@H](Cc2cccnc2)N(C)C(=O)[C@@H]2CCCN2C(=O)CN(C)C1=O` [Compound 489] (cyclo([Ac5c][NMeGly(cPent)][d(β3hA)][NMeA]I[Sar]P[NMe3Pal][Sar][hPhe(3-Cl-4-CF3)]P)) was tested, and the IC50 [1] was 8.1 nM and the IC50 [2] was > 500 nM.
With `CC[C@H](C)[C@@H]1NC(=O)[C@H](C)N(C)C(=O)C[C@@H](C(=O)N2CCCCC2)N(C)C(=O)[C@H](C(C)C)N(C)C(=O)C2(CCCC2)NC(=O)[C@H](Cc2ccccc2F)N(C)C(=O)[C@H](CCc2ccc(C(F)(F)F)c(Cl)c2)NC(=O)CN(C)C(=O)[C@H](CC2CCCCC2)N(C)C(=O)CN(C)C(=O)CN(C)C1=O` [Compound 492] ([NMeA]I[Sar][Sar][NMeCha][Sar][hPhe(3-Cl-4-CF3)][NMePhe(2-F)][Ac5c][NMeV][NMeD]-Piperidide; lactam N-11) the IC50 [1] was 12 nM and the IC50 [2] was > 500 nM.
In the case of `CC[C@H](C)[C@@H]1NC(=O)[C@H](CC(C)C)N(C)C(=O)C[C@@H](C(=O)N2CCC2)N(C)C(=O)[C@H](C2CCCC2)N(C)C(=O)C2(CCCC2)NC(=O)[C@@H]2CCCN2C(=O)[C@H](CCc2ccc(C(F)(F)F)c(Cl)c2)NC(=O)CN(C)C(=O)[C@H](Cc2ccc(C)cc2)N(CC)C(=O)[C@@H]2CCN2C(=O)[C@H](C)N(C)C1=O` [Compound 506] ([NMeL]I[NMeA][Aze][NEtPhe(4-Me)][Sar][hPhe(3-Cl-4-CF3)]P[Ac5c][NMeGly(cPent)][NMeD]-{Azetidin(1-yl)}; lactam N-11), the IC50 [1] is reported as 0.68 nM and the IC50 [2] is reported as ≤ 20 nM.
With `CCCCC[C@H]1C(=O)N[C@@H]([C@@H](C)CC)C(=O)N(C)[C@@H](C)C(=O)N2CC[C@H]2C(=O)N(C)[C@@H](Cc2ccc(C(F)(F)F)cc2)C(=O)N(C)CC(=O)N[C@@H](CCc2ccc(C(F)(F)F)c(Cl)c2)C(=O)N2CCC[C@H]2C(=O)NC2(CCCC2)C(=O)N(C)[C@@H]([C@@H](C)CC)C(=O)N(C)[C@H](C(=O)N2CCCC2)CC(=O)N1C` [Compound 509] ([NMeAhp(2)]I[NMeA][Aze][NMePhe(4-CF3)][Sar][hPhe(3-Cl-4-CF3)]P[Ac5c][NMeI][NMeD]-Pyrrolidide; lactam N-11) the IC50 [1] was 1.3 nM and the IC50 [2] was ≤ 20 nM.
`CC[C@H](C)[C@@H]1NC(=O)[C@H](C)N(C)C(=O)C[C@@H](C(=O)N2CCCCC2)N(C)C(=O)[C@H](C(C)C)N(C)C(=O)C2(CCCC2)NC(=O)[C@H](Cc2cccnc2)N(C)C(=O)[C@H](CCc2ccc(C(F)(F)F)c(Cl)c2)NC(=O)CN(C)C(=O)[C@H](CC2CCCCC2)N(C)C(=O)CN(C)C(=O)CN(C)C1=O` [Compound 519] ([NMeA]I[Sar][Sar][NMeCha][Sar][hPhe(3-Cl-4-CF3)][NMe3Pal][Ac5c][NMeV][NMeD]-Piperidide; lactam N-11) was tested, and the IC50 [1] was 2 nM and the IC50 [2] was > 500 nM.
